# Measured values from article PMC4700268 (Frontiers in Pharmacology, 2016).
# Experiments:
# hOAT1 [1] = molecular target: T1, hOAT1 (Homo sapiens, UniProt Q4U2R8); assay: Inhibition of [3H]PAH uptake in hOAT1 transfected HeLa cells; format: in vitro ADME; design: host or cells: HeLa cells, transient transfection; conditions: 1 μM [3H]PAH, HeLa cells transiently transfected with hOAT1, 2 min, 37°C; read-out: IC50, inhibition of hOAT1 mediated transport
# T1 sequence (Q4U2R8 1-563): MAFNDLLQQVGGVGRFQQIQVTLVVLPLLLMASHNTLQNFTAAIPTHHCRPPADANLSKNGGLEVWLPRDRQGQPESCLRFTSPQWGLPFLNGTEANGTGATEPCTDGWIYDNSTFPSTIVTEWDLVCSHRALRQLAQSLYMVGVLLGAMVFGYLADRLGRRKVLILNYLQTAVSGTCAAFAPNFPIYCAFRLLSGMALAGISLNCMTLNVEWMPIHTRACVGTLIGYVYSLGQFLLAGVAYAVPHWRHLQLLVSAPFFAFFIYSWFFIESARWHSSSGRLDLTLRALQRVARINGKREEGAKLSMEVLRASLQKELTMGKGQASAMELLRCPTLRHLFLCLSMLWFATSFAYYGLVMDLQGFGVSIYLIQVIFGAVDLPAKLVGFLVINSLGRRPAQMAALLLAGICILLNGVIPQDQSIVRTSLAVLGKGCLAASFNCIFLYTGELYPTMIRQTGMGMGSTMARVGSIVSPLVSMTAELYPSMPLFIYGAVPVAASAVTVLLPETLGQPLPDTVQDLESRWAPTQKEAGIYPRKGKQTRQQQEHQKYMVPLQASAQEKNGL
# Method: Inhibitory transport assays were carried out in 24-well plates as described previously ([Mandikova et al., 2013]). Transport assays in HeLa cells transiently transfected with the hOAT1 expression construct were performed 48 h after transfection. Transport assays in MDCK II cells transiently transfected with hOCT2, hCNT2 or hCNT3 were performed 24 h after transfection. The cultivation medium was removed and the cells were washed with transport solution and preincubated for 10 min at 37°C. The standard radiolabeled substrate or tested radioactive antiviral substance dissolved in transport solution was added to the cells and incubated for 2 min. […] After the designated time period, the incubation was stopped by washing the cells twice with ice-cold solution containing 137 mM NaCl and 10 mM HEPES, pH 7.4. The cells were disintegrated with 0.1 mL of Triton X 0.5% in 100 mM NaOH for 1 h. […] IC50 values were calculated using non-linear regression analysis using GraphPad Prism software (version 6).
# [2] = test system: HeLa cells transiently transfected with hOAT1
# Method: The Hela cells were plated in a 96-well plate and transfected with hOAT1 as described above. […] The controls were prepared simultaneously. After 24 h of incubation, the reagent from the kit CellTiter 96 AQueous One Solution Cell Proliferation Assay (CellTiter 96, PROMEGA, USA) was added. After 1.5 h of incubation at 37°C the absorbance was recorded at 490 nm.
# hCNT3 = molecular target: T2, hCNT3 (Homo sapiens, UniProt Q9HAS3); assay: [3H]ETV uptake in hCNT3 transfected cells; conditions: 5 min, 37°C
# T2 sequence (Q9HAS3 1-691): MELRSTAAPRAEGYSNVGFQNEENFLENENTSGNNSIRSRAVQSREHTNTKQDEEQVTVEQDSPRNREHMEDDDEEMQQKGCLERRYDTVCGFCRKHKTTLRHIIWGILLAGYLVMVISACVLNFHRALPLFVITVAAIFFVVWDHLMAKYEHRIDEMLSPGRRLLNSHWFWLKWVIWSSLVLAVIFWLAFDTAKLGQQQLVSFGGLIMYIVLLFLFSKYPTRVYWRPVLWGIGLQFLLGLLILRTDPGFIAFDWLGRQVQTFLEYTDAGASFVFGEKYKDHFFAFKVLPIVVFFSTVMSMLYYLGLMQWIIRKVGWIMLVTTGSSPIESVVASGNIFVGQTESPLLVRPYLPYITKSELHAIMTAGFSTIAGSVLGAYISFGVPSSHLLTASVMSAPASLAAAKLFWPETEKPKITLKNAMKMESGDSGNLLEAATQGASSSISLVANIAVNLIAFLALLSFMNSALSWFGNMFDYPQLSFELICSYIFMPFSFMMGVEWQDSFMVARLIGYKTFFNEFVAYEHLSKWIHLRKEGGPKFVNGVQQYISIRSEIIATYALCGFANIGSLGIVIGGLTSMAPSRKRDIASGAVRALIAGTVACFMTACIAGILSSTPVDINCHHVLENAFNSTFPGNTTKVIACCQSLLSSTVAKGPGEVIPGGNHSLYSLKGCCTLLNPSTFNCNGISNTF
# [3] = test system: MDCK II cells transiently transfected with hCNT2; assay: MTS cell viability assay in hCNT2 transfected MDCK II cells; format: cell-based, canine; conditions: 24 h, 250–1000 μM, hCNT2 vs empty vector MDCK II cells
# Method: The controls were prepared simultaneously.
# hOAT1 [4] = molecular target: T1, hOAT1; design: host or cells: HeLa cells, transient transfection; method as in Xu et al., 2013; conditions: ref Xu et al., 2013; read-out: Km for hOAT1, previously published; cited from earlier work
structure (smiles),measurement,setting,value
"C=C1[C@H](CO)[C@@H](O)C[C@@H]1n1cnc2c(=O)[nH]c(N)nc21 [ETV, Entecavir]",IC50,hOAT1 [1],175 µM
same,Effect of hOAT1 expression on cytotoxicity (cell viability),[2],no significant effect on cell viability
same,Vmax of [3H]ETV uptake by hCNT3,hCNT3,45.84 nmol/mg protein/5 min
same,Effect of hCNT2 expression on cytotoxicity,[3],did not prove any significant increase in cytotoxicity
same,Km,hOAT1 [4],250 µM
